Reference: ChEMBL document CHEMBL4261482, “Development of small molecular compounds targeting cancer stem cells” (Medchemcomm, 2017)

Legend:
DU-4475 = test: Cytotoxicity against human DU4475 cells assessed as decrease in cell viability after 72 hrs by CCK8 assay; assay type: functional, cell-based; details: DU-4475, 72 h
Lu-99 cell line [1] = test: Cytotoxicity against human LU99 cells assessed as decrease in cell viability after 72 hrs by CCK8 assay; assay type: functional, cell-based; details: Lu-99, 72 h
RMG-I = test: Cytotoxicity against human RMG-1 cells assessed as decrease in cell viability after 72 hrs by CCK8 assay; assay type: functional, cell-based
THP-1 = test: Cytotoxicity against human THP1 cells assessed as decrease in cell viability after 48 hrs by MTT assay; assay type: functional, cell-based; details: THP-1, 48 h
786-0 = test: Cytotoxicity against human 786-O cells assessed as decrease in cell viability after 72 hrs by MTT assay; assay type: functional, cell-based; details: 786-0, 72 h
K562 = test: Cytotoxicity against human K562 cells assessed as decrease in cell viability after 48 hrs by MTT assay; assay type: functional, cell-based; details: K562, 48 h
U-937 = test: Cytotoxicity against human U937 cells assessed as decrease in cell viability after 48 hrs by MTT assay; assay type: functional, cell-based; details: U-937, 48 h
SW626 = test: Cytotoxicity against human SW626 cells assessed as decrease in cell viability after 72 hrs by CCK8 assay; assay type: functional, cell-based; details: SW626, 72 h
MV4-11 = test: Cytotoxicity against human MV4-11 cells assessed as decrease in cell viability after 48 hrs by MTT assay; assay type: functional, cell-based; details: MV4-11, 48 h
OVCAR-3 = test: Cytotoxicity against human OVCAR3 cells assessed as decrease in cell viability after 72 hrs by CCK8 assay; assay type: functional, cell-based; details: OVCAR-3, 72 h
OV-90 = test: Cytotoxicity against human OV90 cells assessed as decrease in cell viability after 72 hrs by CCK8 assay; assay type: functional, cell-based; details: OV-90, 72 h
Caov-3 cell line = test: Cytotoxicity against human Caov3 cells assessed as decrease in cell viability after 72 hrs by CCK8 assay; assay type: functional, cell-based; details: Caov-3, 72 h
A2780 = test: Cytotoxicity against human A2780 cells assessed as decrease in cell viability after 72 hrs by CCK8 assay; assay type: functional, cell-based; details: A2780, 72 h
HCT-116 = test: Cytotoxicity against human HCT116 cells assessed as decrease in cell viability after 72 hrs by CCK8 assay; assay type: functional, cell-based; details: HCT-116, 72 h
UMUC3 = test: Cytotoxicity against human UM-UC-3 cells assessed as decrease in cell viability after 72 hrs by CCK8 assay; assay type: functional, cell-based; details: UMUC3, 72 h
T47D = test: Cytotoxicity against human T47D cells assessed as decrease in cell viability after 72 hrs by CCK8 assay; assay type: functional, cell-based
MDA-MB-231 = test: Cytotoxicity against human MDA-MB-231 cells assessed as decrease in cell viability after 72 hrs by CCK8 assay; assay type: functional, cell-based; details: MDA-MB-231, 72 h
769-P = test: Cytotoxicity against human 769-P cells assessed as decrease in cell viability after 72 hrs by MTT assay; assay type: functional, cell-based
[2] = Cytotoxicity against human ES2 cells assessed as decrease in cell viability after 72 hrs by CCK8 assay; assay type: functional, cell-based; details: ES-2, 72 h
CAKI-2 = test: Cytotoxicity against human Caki2 cells assessed as decrease in cell viability after 72 hrs by MTT assay; assay type: functional, cell-based; details: CAKI-2, 72 h
PA-1 = test: Cytotoxicity against human PA1 cells assessed as decrease in cell viability after 72 hrs by CCK8 assay; assay type: functional, cell-based; details: PA-1, 72 h
ML-2 = test: Cytotoxicity against human ML2 cells assessed as decrease in cell viability after 48 hrs by MTT assay; assay type: functional, cell-based; details: ML-2, 48 h
Lu-99 cell line [3] = test: Antitumor activity against human LU99 cells xenografted in BALB/cSLC-nu/nu mouse assessed as tumor growth inhibition at 5 mg/kg, iv qd administered for 14 days measured on day 15 relative to control; assay type: functional; details: Lu-99, iv, read-out: TGI
[4] = Cytotoxicity against human OVTOKO cells assessed as decrease in cell viability after 72 hrs by CCK8 assay; assay type: functional, cell-based
KG-1 = test: Cytotoxicity against human KG1 cells assessed as decrease in cell viability after 48 hrs by MTT assay; assay type: functional, cell-based; details: KG-1, 48 h
A549 [5] = test: Antitumor activity against human A549 cells xenografted in BALB/cSLC-nu/nu mouse assessed as tumor growth inhibition at 5 mg/kg, iv qd administered for 14 days measured on day 15 relative to control; assay type: functional; details: read-out: TGI
Daudi = test: Cytotoxicity against human Daudi cells assessed as decrease in cell viability after 72 hrs by CCK8 assay; assay type: functional, cell-based
MIA PaCa-2 = test: Cytotoxicity against human MIAPaCa2 cells assessed as decrease in cell viability after 72 hrs by CCK8 assay; assay type: functional, cell-based; details: MIA PaCa-2, 72 h
HepG2 = test: Cytotoxicity against human HepG2 cells assessed as decrease in cell viability after 72 hrs by CCK8 assay; assay type: functional, cell-based; details: HepG2, 72 h
CAKI-1 = test: Cytotoxicity against human Caki1 cells assessed as decrease in cell viability after 72 hrs by MTT assay; assay type: functional, cell-based; details: CAKI-1, 72 h
[6] = Cytotoxicity against human VMRC-RCW cells assessed as decrease in cell viability after 72 hrs by MTT assay; assay type: functional, cell-based
MKN-45 = test: Cytotoxicity against human MKN45 cells assessed as decrease in cell viability after 72 hrs by CCK8 assay; assay type: functional, cell-based; details: MKN-45, 72 h
MOLM-13 = test: Cytotoxicity against human MOLM13 cells assessed as decrease in cell viability after 48 hrs by MTT assay; assay type: functional, cell-based; details: MOLM-13, 48 h
A549 [7] = test: Cytotoxicity against human A549 cells assessed as decrease in cell viability after 72 hrs by CCK8 assay; assay type: functional, cell-based; details: A549, 72 h
SK-OV-3 = test: Cytotoxicity against human SKOV3 cells assessed as decrease in cell viability after 72 hrs by CCK8 assay; assay type: functional, cell-based; details: SK-OV-3, 72 h
KG-1a = test: Cytotoxicity against human KG1a cells assessed as decrease in cell viability after 48 hrs by MTT assay; assay type: functional, cell-based
CWR22R = test: Cytotoxicity against human 22Rv1 cells assessed as decrease in cell viability after 72 hrs by CCK8 assay; assay type: functional, cell-based; details: 22Rv1, 72 h
MKN-1 = test: Cytotoxicity against human MKN1 cells assessed as decrease in cell viability after 72 hrs by CCK8 assay; assay type: functional, cell-based; details: MKN-1, 72 h
[8] = Cytotoxicity against human KOCL48 cells assessed as decrease in cell viability after 48 hrs by MTT assay; assay type: functional, cell-based
[9] = Cytotoxicity against human OVSAHO cells assessed as decrease in cell viability after 72 hrs by CCK8 assay; assay type: functional, cell-based

**Q.** For `Cc1cc(O)c(-c2ccc([C@@H](C)CN)cc2)c2c1[nH]c(=O)c1sccc12`, which IC50 (DU-4475) is on record?
**A.** The IC50 was 6.4 nM.

**Q.** And the IC50 (Lu-99 cell line [1])?
**A.** The IC50 was 1.5 nM.

**Q.** What about the IC50 (RMG-I) of the same compound?
**A.** Its IC50 is 15 nM.

**Q.** What about the IC50 (THP-1) of the same compound?
**A.** Its IC50 is 23.5 nM.

**Q.** And the IC50 (786-0)?
**A.** Its IC50 is 44.1 nM.

**Q.** And the IC50 (K562)?
**A.** The IC50 was 36.8 nM.

**Q.** And the IC50 (U-937)?
**A.** Its IC50 is 19.2 nM.

**Q.** And the IC50 (SW626)?
**A.** The IC50 was 9.4 nM.

**Q.** And the IC50 (MV4-11)?
**A.** Its IC50 is 10.7 nM.

**Q.** And the IC50 (OVCAR-3)?
**A.** Its IC50 is 12 nM.

**Q.** And the IC50 (OV-90)?
**A.** Its IC50 is 8.8 nM.

**Q.** What about the IC50 (Caov-3 cell line) of the same compound?
**A.** Its IC50 is 5.1 nM.

**Q.** And the IC50 (A2780)?
**A.** The IC50 was 10 nM.

**Q.** And the IC50 (HCT-116)?
**A.** The IC50 was 4.8 nM.

**Q.** What about the IC50 (UMUC3) of the same compound?
**A.** The IC50 was 5.7 nM.

**Q.** And the IC50 (T47D)?
**A.** Its IC50 is 8.4 nM.

**Q.** What about the IC50 (MDA-MB-231) of the same compound?
**A.** Its IC50 is 14 nM.

**Q.** And the IC50 (769-P)?
**A.** The IC50 was 20.7 nM.

**Q.** And the IC50 [2]?
**A.** Its IC50 is 5.6 nM.

**Q.** What about the IC50 (CAKI-2) of the same compound?
**A.** Its IC50 is 20.1 nM.

**Q.** And the IC50 (PA-1)?
**A.** Its IC50 is 5 nM.

**Q.** What about the IC50 (ML-2) of the same compound?
**A.** Its IC50 is 17.9 nM.

**Q.** What about the inhibition in vivo at 5 mg/kg (Lu-99 cell line [3]) of the same compound?
**A.** Its inhibition in vivo at 5 mg/kg is 104%.

**Q.** And the IC50 [4]?
**A.** The IC50 was 46 nM.

**Q.** What about the IC50 (KG-1) of the same compound?
**A.** Its IC50 is 48.7 nM.

**Q.** And the inhibition in vivo at 5 mg/kg (A549 [5])?
**A.** Its inhibition in vivo at 5 mg/kg is 65%.

**Q.** And the IC50 (Daudi)?
**A.** The IC50 was 3.7 nM.

**Q.** And the IC50 (MIA PaCa-2)?
**A.** Its IC50 is 5.2 nM.

**Q.** And the IC50 (HepG2)?
**A.** The IC50 was 8.5 nM.

**Q.** And the IC50 (CAKI-1)?
**A.** The IC50 was 27.8 nM.

**Q.** What about the IC50 [6] of the same compound?
**A.** The IC50 was 19.9 nM.

**Q.** What about the IC50 (MKN-45) of the same compound?
**A.** Its IC50 is 6.1 nM.

**Q.** What about the IC50 (MOLM-13) of the same compound?
**A.** The IC50 was 9 nM.

**Q.** What about the IC50 (A549 [7]) of the same compound?
**A.** Its IC50 is 6.5 nM.

**Q.** What about the IC50 (SK-OV-3) of the same compound?
**A.** The IC50 was 6.3 nM.

**Q.** And the IC50 (KG-1a)?
**A.** The IC50 was 26.2 nM.

**Q.** What about the IC50 (CWR22R) of the same compound?
**A.** Its IC50 is 8 nM.

**Q.** And the IC50 (MKN-1)?
**A.** The IC50 was 4.6 nM.

**Q.** And the IC50 [8]?
**A.** Its IC50 is 7.1 nM.

**Q.** What about the IC50 [9] of the same compound?
**A.** The IC50 was 13 nM.
